Results reported in the NIST ThermoML archive (doi:10.1021/je060271a).
± gives the expanded uncertainty stated by the source.

Conditions: 303.16 K, Liquid, Vibrating tube method

With `CCCC(=O)OCC(COC(=O)CCC)(COC(=O)CCC)COC(=O)CCC` [pentaerythritol tetrabutyrate] the mass density (28457 kPa) was 1059.5 ± 1.3 kg/m3, the mass density (28504 kPa) was 1059.6 ± 1.3 kg/m3 and the mass density (28542 kPa) was 1059.7 ± 1.3 kg/m3. For the same molecule, the mass density (28589 kPa) was 1059.8 ± 1.3 kg/m3, the mass density (28636 kPa) was 1059.7 ± 1.3 kg/m3 and the mass density (28675 kPa) was 1059.8 ± 1.3 kg/m3. It also gave a mass density (28723 kPa) of 1059.9 ± 1.3 kg/m3, a mass density (28762 kPa) of 1059.7 ± 1.3 kg/m3 and a mass density (28808 kPa) of 1059.8 ± 1.3 kg/m3. It also gave a mass density (28856 kPa) of 1059.8 ± 1.3 kg/m3, a mass density (28896 kPa) of 1060 ± 1.3 kg/m3 and a mass density (28944 kPa) of 1059.8 ± 1.3 kg/m3. For the same molecule, the mass density (28991 kPa) was 1060 ± 1.3 kg/m3, the mass density (29031 kPa) was 1060 ± 1.3 kg/m3 and the mass density (29080 kPa) was 1060 ± 1.3 kg/m3. The mass density (29121 kPa) was 1060 ± 1.3 kg/m3, the mass density (29170 kPa) was 1060.1 ± 1.3 kg/m3 and the mass density (29212 kPa) was 1060 ± 1.3 kg/m3. It also gave a mass density (29261 kPa) of 1060.1 ± 1.3 kg/m3, a mass density (29301 kPa) of 1060 ± 1.3 kg/m3 and a mass density (29349 kPa) of 1060 ± 1.3 kg/m3. For the same molecule, the mass density (29397 kPa) was 1060.1 ± 1.3 kg/m3, the mass density (29435 kPa) was 1060 ± 1.3 kg/m3 and the mass density (29481 kPa) was 1060.1 ± 1.3 kg/m3. The mass density (29515 kPa) was 1060.2 ± 1.3 kg/m3, the mass density (29583 kPa) was 1060.3 ± 1.3 kg/m3 and the mass density (29644 kPa) was 1060.2 ± 1.3 kg/m3. The mass density (29675 kPa) was 1060.3 ± 1.3 kg/m3, the mass density (29772 kPa) was 1060.4 ± 1.3 kg/m3 and the mass density (29848 kPa) was 1060.4 ± 1.3 kg/m3. It also gave a mass density (29885 kPa) of 1060.5 ± 1.3 kg/m3, a mass density (29968 kPa) of 1060.4 ± 1.3 kg/m3 and a mass density (30045 kPa) of 1060.6 ± 1.3 kg/m3. It also gave a mass density (30080 kPa) of 1060.5 ± 1.3 kg/m3, a mass density (30163 kPa) of 1060.5 ± 1.3 kg/m3 and a mass density (30239 kPa) of 1060.6 ± 1.3 kg/m3. It also gave a mass density (30274 kPa) of 1060.8 ± 1.3 kg/m3, a mass density (30309 kPa) of 1060.5 ± 1.3 kg/m3 and a mass density (30339 kPa) of 1060.8 ± 1.3 kg/m3. The mass density (30375 kPa) was 1060.8 ± 1.3 kg/m3, the mass density (30405 kPa) was 1060.6 ± 1.3 kg/m3 and the mass density (30441 kPa) was 1060.8 ± 1.3 kg/m3. For the same molecule, the mass density (30478 kPa) was 1060.7 ± 1.3 kg/m3, the mass density (30509 kPa) was 1060.8 ± 1.3 kg/m3 and the mass density (30539 kPa) was 1060.8 ± 1.3 kg/m3. The mass density (30576 kPa) was 1060.9 ± 1.3 kg/m3, the mass density (30606 kPa) was 1060.9 ± 1.3 kg/m3 and the mass density (30642 kPa) was 1060.7 ± 1.3 kg/m3. For the same molecule, the mass density (30679 kPa) was 1060.9 ± 1.3 kg/m3, the mass density (30710 kPa) was 1060.8 ± 1.3 kg/m3 and the mass density (30746 kPa) was 1060.9 ± 1.3 kg/m3. For the same molecule, the mass density (30777 kPa) was 1061.1 ± 1.3 kg/m3, the mass density (30814 kPa) was 1061 ± 1.3 kg/m3 and the mass density (30850 kPa) was 1060.9 ± 1.3 kg/m3. The mass density (30882 kPa) was 1061 ± 1.3 kg/m3, the mass density (30919 kPa) was 1061 ± 1.3 kg/m3 and the mass density (30951 kPa) was 1061 ± 1.3 kg/m3. The mass density (30989 kPa) was 1061.1 ± 1.3 kg/m3, the mass density (31020 kPa) was 1061 ± 1.3 kg/m3 and the mass density (31057 kPa) was 1061.1 ± 1.3 kg/m3. It also gave a mass density (31094 kPa) of 1061.3 ± 1.3 kg/m3, a mass density (31126 kPa) of 1061.1 ± 1.3 kg/m3 and a mass density (31164 kPa) of 1061.1 ± 1.3 kg/m3. It also gave a mass density (31196 kPa) of 1061.1 ± 1.3 kg/m3, a mass density (31233 kPa) of 1061.1 ± 1.3 kg/m3 and a mass density (31271 kPa) of 1061.2 ± 1.3 kg/m3. For the same molecule, the mass density (31303 kPa) was 1061.3 ± 1.3 kg/m3, the mass density (31342 kPa) was 1061.2 ± 1.3 kg/m3 and the mass density (31375 kPa) was 1061.3 ± 1.3 kg/m3. The mass density (31414 kPa) was 1061.3 ± 1.3 kg/m3, the mass density (31446 kPa) was 1061.3 ± 1.3 kg/m3 and the mass density (31485 kPa) was 1061.2 ± 1.3 kg/m3. For the same molecule, the mass density (31517 kPa) was 1061.2 ± 1.3 kg/m3, the mass density (31555 kPa) was 1061.3 ± 1.3 kg/m3 and the mass density (31595 kPa) was 1061.4 ± 1.3 kg/m3. The mass density (31627 kPa) was 1061.4 ± 1.3 kg/m3, the mass density (31667 kPa) was 1061.4 ± 1.3 kg/m3 and the mass density (31700 kPa) was 1061.5 ± 1.3 kg/m3. The mass density (31738 kPa) was 1061.4 ± 1.3 kg/m3, the mass density (31778 kPa) was 1061.5 ± 1.3 kg/m3 and the mass density (31811 kPa) was 1061.5 ± 1.3 kg/m3. It also gave a mass density (31851 kPa) of 1061.5 ± 1.3 kg/m3, a mass density (31883 kPa) of 1061.5 ± 1.3 kg/m3 and a mass density (31922 kPa) of 1061.6 ± 1.3 kg/m3. For the same molecule, the mass density (31960 kPa) was 1061.6 ± 1.3 kg/m3, the mass density (31999 kPa) was 1061.6 ± 1.3 kg/m3 and the mass density (32038 kPa) was 1061.6 ± 1.3 kg/m3. The mass density (32076 kPa) was 1061.5 ± 1.3 kg/m3, the mass density (32115 kPa) was 1061.7 ± 1.3 kg/m3 and the mass density (32148 kPa) was 1061.9 ± 1.3 kg/m3. It also gave a mass density (32187 kPa) of 1061.8 ± 1.3 kg/m3, a mass density (32227 kPa) of 1061.7 ± 1.3 kg/m3 and a mass density (32266 kPa) of 1061.9 ± 1.3 kg/m3. The mass density (32299 kPa) was 1061.7 ± 1.3 kg/m3, the mass density (32339 kPa) was 1061.8 ± 1.3 kg/m3 and the mass density (32380 kPa) was 1061.8 ± 1.3 kg/m3. The mass density (32419 kPa) was 1061.8 ± 1.3 kg/m3, the mass density (32452 kPa) was 1061.8 ± 1.3 kg/m3 and the mass density (32491 kPa) was 1062 ± 1.3 kg/m3. The mass density (32532 kPa) was 1061.9 ± 1.3 kg/m3, the mass density (32572 kPa) was 1061.8 ± 1.3 kg/m3 and the mass density (32612 kPa) was 1061.9 ± 1.3 kg/m3. For the same molecule, the mass density (32652 kPa) was 1062 ± 1.3 kg/m3, the mass density (32693 kPa) was 1061.8 ± 1.3 kg/m3 and the mass density (32727 kPa) was 1062 ± 1.3 kg/m3. It also gave a mass density (32768 kPa) of 1062 ± 1.3 kg/m3, a mass density (32809 kPa) of 1062.1 ± 1.3 kg/m3 and a mass density (32850 kPa) of 1062 ± 1.3 kg/m3. The mass density (32891 kPa) was 1062.2 ± 1.3 kg/m3, the mass density (33091 kPa) was 1062.2 ± 1.3 kg/m3 and the mass density (33133 kPa) was 1062.2 ± 1.3 kg/m3. For the same molecule, the mass density (33168 kPa) was 1062.2 ± 1.3 kg/m3, the mass density (33210 kPa) was 1062.2 ± 1.3 kg/m3 and the mass density (33253 kPa) was 1062.4 ± 1.3 kg/m3. It also gave a mass density (33296 kPa) of 1062.3 ± 1.3 kg/m3, a mass density (33340 kPa) of 1062.3 ± 1.3 kg/m3 and a mass density (33377 kPa) of 1062.2 ± 1.3 kg/m3. The mass density (33421 kPa) was 1062.4 ± 1.3 kg/m3, the mass density (33456 kPa) was 1062.4 ± 1.3 kg/m3 and the mass density (33499 kPa) was 1062.4 ± 1.3 kg/m3. The mass density (33542 kPa) was 1062.4 ± 1.3 kg/m3, the mass density (33586 kPa) was 1062.6 ± 1.3 kg/m3 and the mass density (33622 kPa) was 1062.5 ± 1.3 kg/m3. The mass density (33666 kPa) was 1062.6 ± 1.3 kg/m3, the mass density (33710 kPa) was 1062.5 ± 1.3 kg/m3 and the mass density (33753 kPa) was 1062.5 ± 1.3 kg/m3. The mass density (33797 kPa) was 1062.6 ± 1.3 kg/m3, the mass density (33834 kPa) was 1062.6 ± 1.3 kg/m3 and the mass density (33881 kPa) was 1062.7 ± 1.3 kg/m3. The mass density (33925 kPa) was 1062.7 ± 1.3 kg/m3, the mass density (33963 kPa) was 1062.8 ± 1.3 kg/m3 and the mass density (34008 kPa) was 1062.7 ± 1.3 kg/m3. The mass density (34052 kPa) was 1062.7 ± 1.3 kg/m3, the mass density (34098 kPa) was 1062.8 ± 1.3 kg/m3 and the mass density (34136 kPa) was 1062.8 ± 1.3 kg/m3. For the same molecule, the mass density (34182 kPa) was 1062.8 ± 1.3 kg/m3, the mass density (34228 kPa) was 1062.7 ± 1.3 kg/m3 and the mass density (34275 kPa) was 1062.9 ± 1.3 kg/m3. For the same molecule, the mass density (34322 kPa) was 1062.9 ± 1.3 kg/m3, the mass density (34370 kPa) was 1063 ± 1.3 kg/m3 and the mass density (34411 kPa) was 1063.1 ± 1.3 kg/m3. It also gave a mass density (34462 kPa) of 1063 ± 1.3 kg/m3, a mass density (34514 kPa) of 1063.1 ± 1.3 kg/m3 and a mass density (34558 kPa) of 1062.9 ± 1.3 kg/m3. The mass density (34613 kPa) was 1063 ± 1.3 kg/m3 and the mass density (34844 kPa) was 1063.3 ± 1.3 kg/m3.
